Consider three molecules from patent US7880007B2, “Bicyclic substituted phenyl piperidine modulators of muscarinic receptors” (Vertex Pharmaceuticals Incorporated, priority 2004, dated 2011).

Structures are written as SMILES. Some results are limits rather than exact numbers.

What all share (type): cell-based
One experiment has as its target T1, M3 muscarinic receptor (Homo sapiens, UniProt P20309).
T1 construct: expressed in transfected cells; host or cells: CHO (M3-CHO)
In words: Functional mobilization of intracellular calcium (FLIPR), M3-CHO cells. The settings on record: for Emax: 100% efficacy = maximum response obtained with the Carbachol control; for M3 Activity: M3-CHO cells, calcium mobilization (FLIPR). Put shortly: (§1)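 FLIPR fluorescence (ex 488, em 540 nm) recorded 60 sec after compound addition to dye-loaded CHO cells. Agonist mode: compound alone. Antagonist mode: 15 min compound pre-incubation, then carbachol at EC80, or co-application. Efficacy expressed as % of maximal carbachol response.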
For orientation: A change in cytosolic calcium serves as a functional read-out for many receptors and channels.

A further experiment deals with T2, M2 muscarinic receptor (Homo sapiens, UniProt P08172).
T2 construct: expressed in transfected cells; host or cells: CHO (M2-CHO)
T2 sequence (P08172 1-466): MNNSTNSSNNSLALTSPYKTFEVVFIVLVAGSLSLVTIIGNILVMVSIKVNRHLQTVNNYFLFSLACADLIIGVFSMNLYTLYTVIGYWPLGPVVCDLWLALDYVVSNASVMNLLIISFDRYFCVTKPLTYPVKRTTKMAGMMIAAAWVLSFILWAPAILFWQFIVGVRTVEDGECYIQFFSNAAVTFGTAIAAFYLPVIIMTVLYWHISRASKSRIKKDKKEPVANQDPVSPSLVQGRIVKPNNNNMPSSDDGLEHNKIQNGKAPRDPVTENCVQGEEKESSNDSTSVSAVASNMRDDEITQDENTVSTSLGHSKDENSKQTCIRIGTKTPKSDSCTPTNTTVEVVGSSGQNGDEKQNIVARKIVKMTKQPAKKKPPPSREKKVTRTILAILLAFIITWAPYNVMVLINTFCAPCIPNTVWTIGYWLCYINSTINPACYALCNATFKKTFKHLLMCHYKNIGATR
In words: Functional mobilization of intracellular calcium (FLIPR), M2-CHO cells. To be noted: for Emax: 100% efficacy = maximum response obtained with the Carbachol control; for M2 Activity: M2-CHO cells, calcium mobilization (FLIPR). In short, it runs like this: as §1

A further experiment deals with T3, M4 muscarinic receptor (Homo sapiens, UniProt P08173).
T3 construct: expressed in transfected cells; host or cells: CHO (M4-CHO)
T3 sequence (P08173 1-479): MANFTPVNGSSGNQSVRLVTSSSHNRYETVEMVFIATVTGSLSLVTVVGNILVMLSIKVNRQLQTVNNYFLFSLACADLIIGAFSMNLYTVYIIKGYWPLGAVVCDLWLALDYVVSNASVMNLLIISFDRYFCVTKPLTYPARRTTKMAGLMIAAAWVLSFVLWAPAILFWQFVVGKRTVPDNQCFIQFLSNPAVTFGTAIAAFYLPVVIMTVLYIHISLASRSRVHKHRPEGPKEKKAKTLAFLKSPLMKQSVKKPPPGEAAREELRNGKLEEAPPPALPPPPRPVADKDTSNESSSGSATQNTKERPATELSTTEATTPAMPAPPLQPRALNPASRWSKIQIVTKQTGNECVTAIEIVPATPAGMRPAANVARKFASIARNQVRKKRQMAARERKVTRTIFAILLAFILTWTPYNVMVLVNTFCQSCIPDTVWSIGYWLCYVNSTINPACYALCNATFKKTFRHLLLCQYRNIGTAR
In words: Functional mobilization of intracellular calcium (FLIPR), M4-CHO cells. To be noted: for Emax: 100% efficacy = maximum response obtained with the Carbachol control; for M4 Activity: M4-CHO cells, calcium mobilization (FLIPR). Put shortly:
as §1

A further experiment concerns the target T4, M1 muscarinic receptor (Homo sapiens, UniProt P11229).
T4 construct: expressed in transfected cells; host or cells: CHO (M1-CHO)
T4 sequence (P11229 1-460): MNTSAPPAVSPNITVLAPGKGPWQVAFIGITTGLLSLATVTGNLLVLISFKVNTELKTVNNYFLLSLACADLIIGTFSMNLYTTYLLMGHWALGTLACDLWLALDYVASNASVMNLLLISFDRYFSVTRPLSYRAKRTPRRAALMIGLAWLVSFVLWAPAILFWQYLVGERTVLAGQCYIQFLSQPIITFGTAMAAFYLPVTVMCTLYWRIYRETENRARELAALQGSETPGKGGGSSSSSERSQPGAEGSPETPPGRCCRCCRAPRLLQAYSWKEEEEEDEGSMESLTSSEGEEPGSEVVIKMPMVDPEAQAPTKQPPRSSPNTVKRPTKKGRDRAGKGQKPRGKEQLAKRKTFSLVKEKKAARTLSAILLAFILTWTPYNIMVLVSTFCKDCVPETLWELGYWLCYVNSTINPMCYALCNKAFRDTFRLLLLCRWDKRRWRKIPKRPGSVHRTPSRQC
In words: Functional mobilization of intracellular calcium (FLIPR), M1-CHO cells. To be noted: for Emax: 100% efficacy = maximum response obtained with the Carbachol control; for M1 Activity: M1-CHO cells, calcium mobilization (FLIPR). Put shortly:
as §1

T1 sequence (P20309 whole entry): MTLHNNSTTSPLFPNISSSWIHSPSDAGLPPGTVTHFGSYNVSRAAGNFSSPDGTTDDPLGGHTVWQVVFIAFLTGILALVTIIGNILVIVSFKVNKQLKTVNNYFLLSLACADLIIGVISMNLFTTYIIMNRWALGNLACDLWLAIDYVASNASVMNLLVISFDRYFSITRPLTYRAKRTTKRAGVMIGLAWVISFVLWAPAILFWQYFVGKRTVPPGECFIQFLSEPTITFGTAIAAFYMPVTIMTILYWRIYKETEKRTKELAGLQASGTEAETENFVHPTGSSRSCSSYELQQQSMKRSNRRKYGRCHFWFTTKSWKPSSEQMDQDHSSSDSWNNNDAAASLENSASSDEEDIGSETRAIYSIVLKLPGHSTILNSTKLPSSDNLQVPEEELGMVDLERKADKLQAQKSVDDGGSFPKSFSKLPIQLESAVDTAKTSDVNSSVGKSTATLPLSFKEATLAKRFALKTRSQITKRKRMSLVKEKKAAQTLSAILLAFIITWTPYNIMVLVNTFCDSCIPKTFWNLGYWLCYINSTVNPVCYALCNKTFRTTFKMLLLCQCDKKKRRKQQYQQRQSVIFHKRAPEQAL

In the case of `COc1ccc(-c2ccc(OC(F)(F)F)cc2)cc1C1CCN([C@H]2C[C@H]3CC[C@H]2C3)CC1` [Compound 126], at M3 muscarinic receptor, the Emax is less than 25% and the “M3 Activity” value is recorded as “+ (activity was measured to be greater than 5.0 μM)”. Besides, at M2 muscarinic receptor, the Emax is less than 25% and the “M2 Activity” value is listed as “+ (activity was measured to be greater than 5.0 μM)”. At M4 muscarinic receptor, the Emax is 25 to 100% and the “M4 Activity” value is on record as “+ (activity was measured to be greater than 5.0 μM)”. Besides, on M1 muscarinic receptor, the Emax lay in the range of 25 to 100% and the “M1 Activity” value was “+ (activity was measured to be greater than 5.0 μM)”.
Take `CCCC1CCC(N2CCC(F)(c3cc(F)ccc3OC)CC2)CC1` (stereo not drawn) [Compound 327]: at M3 muscarinic receptor, the Emax was less than 25% and the “M3 Activity” value was “+ (activity was measured to be greater than 5.0 μM)”. For the same molecule, at M2 muscarinic receptor, the Emax was 25 to 100% and the “M2 Activity” value is recorded as “+ (activity was measured to be greater than 5.0 μM)”. Further, at M4 muscarinic receptor, the Emax fell in the range of 25 to 100% and the “M4 Activity” value is “++ (activity was measured to be from 1.0 μM to 5.0 μM)”. At M1 muscarinic receptor, the Emax was in the range of 25 to 100% and the “M1 Activity” value was “++ (activity was measured to be from 1.0 μM to 5.0 μM)”.
For `CCOC(=O)N1[C@@H]2CC[C@@H]1CC(N1CCC(c3cc(C)ccc3OC)CC1)C2` (stereo partly drawn) [Compound 363], at M3 muscarinic receptor, the Emax lay in the range of 25 to 100% and the “M3 Activity” value is reported as “+ (activity was measured to be greater than 5.0 μM)”. Also, at M2 muscarinic receptor, the Emax lay within 25 to 100% and the “M2 Activity” value is “+++ (activity was measured to be less than 1.0 μM)”. Moreover, on M4 muscarinic receptor, the Emax is 25 to 100% and the “M4 Activity” value was “+++ (activity was measured to be less than 1.0 μM)”. On M1 muscarinic receptor, the Emax lay in the range of 25 to 100% and the “M1 Activity” value is “+++ (activity was measured to be less than 1.0 μM)”.

Broadly, the Emax is the size of the effect at its maximum, as opposed to the concentration needed.
